Data: patent US20210317109A1, “TRICYCLIC SUBSTITUTED PIPERIDINE DIONE COMPOUND” (MEDSHINE DISCOVERY INC., priority 2018, published 2021)
Where a name gives a salt, the structure may show the parent alone.

What was measured:
OCI-LY10 cell line = assay: Anti-proliferative effect in lymphoma cell line OCI-LY10 (CellTiter-Glo); type: cell-based; details: Homo sapiens, OCI-Ly10, 120 h; incubate with the compound for 5 days
Method: (§1) Experiment object: In this experiment, the inhibitory effects of the test compounds on cell proliferation in the diffuse large B-cell lymphoma cell lines OCI-LY10 and DOHH2, and the mantle cell lymphoma cell line Mino were tested.
(§2) The tumor cell lines were cultured in an incubator at 37° C. and 5% CO2 under the above-mentioned culture conditions. The cells were passaged regularly, and cells in the logarithmic growth phase were taken for planting.
(§3) (1). The cells were stained with trypan blue and live cells were counted.
(§4) (2). The cell concentration was adjusted to an appropriate concentration.
(§5) (3). 90 μL of cell suspension was added to each well of the culture plate as shown in the table above, and cell-free culture solution was added to the blank control well.
(4). The culture plates were incubated overnight at 37° C., 5% CO2, and 100% relative humidity in an incubator. […]
(§6) The following steps followed the instructions of Promega CellTiter-Glo Luminescence Cell Viability Detection Kit (Promega-G7573). […]
(§7) (8). The culture plates were left at room temperature for 10 minutes to stabilize the luminescence signal.
(§8) (9). The luminous signal was detected on the 2104 EnVision plate reader. […]

DOHH2 cell line = assay: Anti-proliferative effect in lymphoma cell line DOHH2 (CellTiter-Glo); type: cell-based; details: Homo sapiens, DOHH-2, 96 h; incubate with the compound for 4 days
Method: as §1, §2, §3, §4, §5
(§9) (4). The culture plates were incubated overnight at 37° C., 5% CO2, and 100% relative humidity in an incubator.
(§10) The mother liquor storage plate with a compound concentration of 400 times the working concentration of the compound was prepared: The compound was gradually diluted with DMSO from the highest concentration to the lowest concentration. The compound was freshly formulated when use every time.
(§11) (1). Formulation of a working solution with a compound concentration of […] the working concentration of the compound: 76 μL of cell culture solution was added to a 96-well plate with a V-shaped bottom, and 4 μL of the compound was pipetted from the mother liquor storage plate with a compound concentration of […] the working concentration of the compound to the cell culture solution of the 96-well plate. 4 μL of DMSO was added to the vehicle control and blank control. After adding the compound or DMSO, a multi-channel pipette was used for pipetting and mixing well. […]
as §6, §7, §8

Mino cell line = assay: Anti-proliferative effect in mantle cell lymphoma cell line Mino (CellTiter-Glo); type: cell-based; details: Homo sapiens, 96 h, incubate with the compound for 4 days
Method: as §1, §2, §3, §4, §5, §9, §10, §11, §6, §7, §8

[1] = Pharmacokinetic properties of test compound in mice (oral); type: in vivo, C57BL male mice; details: for Area under the drug-time curve (0-inf) / Peak concentration / Time to peak / oral plasma systemic exposures (AUC0-inf), in words: mice; for Area under the drug-time curve (0-inf) / Peak concentration / Time to peak: oral 10 mg/kg, plasma; for pharmacokinetic properties, in words: rodent mice
Source text: In this study, C57BL male mice were selected as the test animals. A LC-MS/MS method was used to quantitatively determine the drug concentration in the plasma after oral administration of the test compound and the reference compound, to evaluate the pharmacokinetic profile of the test compound in mice.
C57Balb/c (C57) mice (male, 20-30 g, 7-10 weeks old, Beijing Vital River or Shanghai SLAC).
A clear solution or suspension of the test compound was administrated to C57 mice (fasted overnight) by oral gavage. Blood was collected from jugular vein at pre-dose and 0.5, 1, 2, 4, 6, 8, 24 hours post-dose, the collected blood samples were placed in an anticoagulant tube (Jiangsu Kangjian Medical Co., Ltd.) supplemented with EDTA-K2, and the mixture was vortexed and centrifuged at 13000 rpm for 10 minutes. The LC-MS/MS method was used to determine the plasma concentration of test compounds, and the relevant pharmacokinetic parameters were calculated using non-compartmental model linear logarithmic trapezoidal method by WinNonlinTM Version 6.3 (Pharsight, Mountain View, Calif.).

[2] = system: human lymphoma OCI-LY10 cells subcutaneous xenograft tumor
Method: Cells culture: Human lymphoma OCI-LY10 cells (National Cancer Institute) were cultured in a monolayer in vitro. The culture conditions were RPMI-1640 medium with 10% fetal bovine serum, 100 U/mL penicillin and […] streptomycin, 37° C., 5% CO2 incubator culture. Conventional digestion treatment with pancreatin-EDTA for passage was carried out twice a week. When the cell saturation was 80% to 90%, and the number reached the requirement, the cells were collected, counted and inoculated.
Animal: CB-17 SCID mouse, female, 6-8 weeks old, weighing 18-22 grams. Protocols:
0.2 mL (10×10^6 cells) of OCI-LY10 cells (with matrigel in a volume ratio of 1:1) were subcutaneously inoculated on the right back of each mouse. The grouping and administration were started when the average tumor volume reached about 139 mm^3. One dosing cycle was seven days, and the compound was administered once a day with an interval of 24 hours. The test compound was administered orally for a total of four cycles. The dose of the test compound WX002 was 60 mg/kg, the tumor volume was measured twice a week with a two-dimensional caliper, and the volume was measured in cubic millimeters, calculated by the following formula: V =0.5a×b^2, in which a and b were the long diameter and short diameter of the tumor, respectively. The anti-tumor efficacy was determined by dividing average increase of tumor volume of animals treated with the compound by that of untreated animals.

[3] = 60 mg/kg oral once a day, Day 27

| SMILES | IC50 (DOHH2 cell line) [nM] | IC50 (Mino cell line) [nM] | Area under the drug-time curve (0-inf) [1] [µM·h] | Peak concentration [1] [µM] | Time to peak [1] [h] | oral plasma systemic exposures (AUC0-inf), in words [1] | pharmacokinetic properties, in words [1] | IC50 (OCI-LY10 cell line) [nM] | Tumor volume (Day 1) ([2]; 60 mg/kg oral once a day, Day 1 (start of administration)) [mm^3] | TGI (Day 27) [2, 3] [%] | Tumor volume (Day 27) [2, 3] [mm^3] | effect on the human lymphoma OCI-LY10 in vivo pharmacodynamic model, in words ([2]; mouse, in vivo) |
| --- | --- | --- | --- | --- | --- | --- | --- | --- | --- | --- | --- | --- |
| O=C1CCC(c2coc3ccc4ccccc4c23)C(=O)N1 (centres unmarked) [WX002] | 97 | 8 | 2.49 | 2.83 | 0.50 | – | – | 26 | 139 ± 10 | 111 | 35 ± 10 | significant tumor-shrinking effect |
| CCOC(=O)Cc1coc2ccc3cc(OCCN(C)C)ccc3c12 [Hydrochloride of WX008] | – | – | 10.27 | 4.88 | 1.00 | higher oral plasma systemic exposures | better pharmacokinetic properties | – | – | – | – | – |
| O=C1CCC(c2coc3ccc4cc(OCCN5CCOCC5)ccc4c23)C(=O)N1 (centres unmarked) [Hydrochloride of WX020] | – | – | 18.38 | 8.56 | 0.25 | higher oral plasma systemic exposures | better pharmacokinetic properties | – | – | – | – | – |

Continued, in another order:

| IC50 (DOHH2 cell line) [nM] | IC50 (Mino cell line) [nM] | Area under the drug-time curve (0-inf) [1] [µM·h] | Peak concentration [1] [µM] | Time to peak [1] [h] | oral plasma systemic exposures (AUC0-inf), in words [1] | pharmacokinetic properties, in words [1] | SMILES | IC50 (OCI-LY10 cell line) [nM] | Tumor volume (Day 1) ([2]; 60 mg/kg oral once a day, Day 1 (start of administration)) [mm^3] | TGI (Day 27) [2, 3] [%] | Tumor volume (Day 27) [2, 3] [mm^3] | effect on the human lymphoma OCI-LY10 in vivo pharmacodynamic model, in words ([2]; mouse, in vivo) |
| --- | --- | --- | --- | --- | --- | --- | --- | --- | --- | --- | --- | --- |
| – | – | 7.79 | 12.95 | 0.08 | higher oral plasma systemic exposures | better pharmacokinetic properties | O=C1CCC(c2coc3ccc4[nH]ccc4c23)C(=O)N1 (centres unmarked) [WX007] | – | – | – | – | – |
| 165 | 10 | – | – | – | – | – | Cc1cc2c(ccc3occ(C4CCC(=O)NC4=O)c32)o1 (centres unmarked) [WX005] | – | – | – | – | – |
| 144 | 7 | 5.50 | 6.54 | 0.25 | higher oral plasma systemic exposures | better pharmacokinetic properties | O=C1CCC(c2coc3ccc4occc4c23)C(=O)N1 (centres unmarked) [WX004] | 17 | – | – | – | – |
